Values quoted from earlier work as cited in PMC11400633, “Peptides inhibiting the assembly of monomeric human L‐lactate dehydrogenase into catalytically active homotetramer decrease the synthesis of lactate in cultured cells” (Protein Science : A Publication of the Protein Society, 2024).

Key:
[1] = target: dimeric LDH‐B; conditions: ref Thabault et al., 2020; read-out: K D for dimeric LDH‐B; cited from earlier work
Excerpt: (§1) In particular, the loss of activity related to the dissociation of tetrameric LDH‐A (Hermann et al., [1981]; Pasti et al., [2022]) prompts the search for peptides able to interfere with the quaternary structure of this enzyme. Peptides can indeed mimic a secondary structure element supposed to be a major determinant of the reciprocal interactions engaged by the subunits of an oligomeric protein (Wang et al., [2021]). Nevertheless, it should be noted that the effectivenes ...

[2] = system: LDH‐5; conditions: LDH-5 exposed to pH 2.5, incubated with peptide 2 min, then pH 7.4; ref Nadal‐Bufi et al., 2021; cited from earlier work
Excerpt: as §1, with “... || Structurally speaking, the four subunits of LDH‐5 are arranged as a binary association of dimers, with their N‐ and C‐terminal regions reciprocally engaged in dimer‐dimer interactions (Read et al., [2001]). […] Moreov ...” for “...”

[3] = system: LDH‐A; conditions: dynamic light scattering; shift from about 240 kDa; ref Jafary et al., 2019; cited from earlier work
Excerpt: as §1

| Substance | apparent LDH‐A molecular mass in the presence of peptide [3] | also measured |
| --- | --- | --- |
| ATLKEKLI | – | Kd [1]: 1000 µM |
| Ac-QNGISDLVK-NH2 [Peptide C1] | – | action against LDH‐A (in words) [2]: ineffective |
| IYNLLK [hexamer of the literature targeting the C‐terminal region of LDH‐A] | ca. 100 kDa | – |
| KVVYNV [hexamer of the literature targeting the C‐terminal region of LDH‐A] | ca. 100 kDa | – |
